1 molecule from patent publication US20230088704A1, “A PHARMACEUTICAL COMBINATION FOR THE TREATMENT OF A CANCER” (ABILITY PHARMACEUTICALS S.L., priority 2020, published 2023) can be followed below.

Series [1] relates to U87MG cells. Kind of series: Human glioblastoma orthotopic xenograft, ABTL0812 with radiotherapy. In kind it is in vivo, nude mice. Here is the method: Methods: Mice were intra-cerebrally injected with luciferase transfected U87MG cells. Animals were randomized 5 days after cell inoculation and treatments started. ABTL0812 was administered orally at 240 mg/kg 5 days/week and radiotherapy as single dose of 4 Gy administered at day 10.
Tumors were measured by quantification of bioluminescence intensity (BLI) of the region of interest.

A further series has as its system SK-N-BE(2) cells. Kind of series: Cell viability (crystal violet), ABTL0812 with temozolomide. It counts as cell-based. The note with it: ABTL0812 30 μM + temozolomide 500, 1000, 1500 μM; 48 hours; 0.5% FBS. On the procedure:
(§1) Methods: LA1-5S and SK-N-BE(2) cells were incubated with increasing concentrations of temozolomide (500 μM, 1000 μM and 1500 μM), and subIC50 fixed concentrations of ABTL0812. (30 μM for SK-N-BE(2) and 40 μM for LA1-5S). Cells were treated for 48 hours in IMDM with 0.5% FBS. Cell viability was evaluated by crystal violet assay. Different doses were assessed in six replicates and the results shown are the average of two independent experiments. Statistical analyses were performed according to the T-Test principle with GraphPad Prism® 5.0 software.

The subject of series [2] is LA1-5S cells. The description is as above. In kind it is cell-based. The note with it: ABTL0812 40 μM + temozolomide 500, 1000, 1500 μM; 48 hours; 0.5% FBS. Here is the method:
as §1

Another series has as its system PDL1. Nature of the series: PDL1 expression in cancer cells by flow cytometry (Example 6.2). It counts as cell-based, human. As to conditions: ABTL0812 100 μM, 48 hours. On the procedure:
Methods: Human cancer cell lines were incubated with 100 μM of ABTL0812 during 48 hours and collected for staining with anti-PDL1 antibody labeled with a fluorophore. After staining of cells with anti-PDL1 antibody, cells were run on Flow Cytometry (Facs Canto) to analyzed PDL1 levels in cancer cells. Additionally, we incubated Panc-1 cells with ABTL0812 (50 μM), IFNγ (2.5 ng/ml), a master regulator of PDL1 expression or a combination with both. Then, cells were collected, stained with anti-PDL1 antibody and analyzed by Flow Cytometry for the expression of PDL1.
(In flow cytometry, cells or beads pass a laser one at a time.)

The test system of another series is Ishikawa cells. It counts as in vivo. As to conditions: ABTL0812 oral 120 mg/kg/day; Doxorubicin 5 mg/kg i.p. once a week. On the procedure: Methods: Mice were injected with 4×10^6 Ishikawa cells in one flank to induce tumor formation. […] ABTL0812 was administered by the oral route at 120 mg/kg/day. Doxorubicin 5 mg/kg was administered intra-peritoneally once a week. Tumor volume and body weight were monitored 3 times a week.

For series [3], the system named is human immortalized THP-1 and human primary macrophage cells. Nature of the series: M1/M2 polarization of immortalized and primary macrophages, RT-qPCR. It counts as cell-based. Here is the method:
Methods: THP-1 monocytes growing in suspension were differentiated to macrophages by incubation with PMA for 24 hours, inducing their attachment to the plates. Monocytes were differentiated to macrophages incubating with M-CSF1 at 20 ng/mL for 7 days. In parallel, whole blood was collected from healthy donors, and circulating monocytes were purified using immunomagnetic separation. Monocytes were selected using anti-CD14 antibodies bound to magnetic beads, which were retained in the magnetic column and further eluted for culturing in vitro. After obtaining activated macrophages (immortalized and primary), these were polarized to M1 by incubation with LPS+IFNγ for 6 hours in the presence of ABTL0812 at 100 μM. In parallel, differentiated macrophages were polarized to M2 by incubation with IL-4 and IL-13 for 24 hours in the presence of ABTL0812 (100 μM). Afterwards, polarized macrophages were lysed, total RNA extracted, retrotranscribed to cDNA and mRNA levels of IL1β, TNFα (M1 markers) and IL-10 (M2 marker) were evaluated by RT-qPCR using specific probes.
In general terms: Real-time PCR tracks product formation cycle by cycle.

A further series concerns MT5 cells. Nature of the series: Syngeneic pancreatic cancer model, ABTL0812 vs anti-PD1. It counts as in vivo, C57BL6 mice. Here is the method:
Methods: MT5 cells are a highly tumorigenic murine cell line mutated in KRAS and p53 initially derived from the pancreas of triple transgenic KRAS-p53-Cre (KPC) mice, carrying pancreatic duc-tal adenocarcinoma. […] C57BL6 mice were injected with 2×10^6 MT5 cells in one flank to induce tumor formation. […] The treatment groups were Vehicle, ABTL0812 and anti-PD1. ABTL0812 was administered by the oral route at 480 mg/kg/day. Anti-PD1 antibody was administered i.p. at 200 μg/dose every three days. Tumor volume and body weight were monitored 3 times a week. At the end of the treatments, mice were euthanized, tumors collected and single cell suspension was obtained by digesting tumors using digestion media containing collagenase and lipase and further processing with trypsin and DNAse. Additionally, spleens from treated mice were collected, minced using a strainer, and single cells were obtained after treatment with trypsin and DNAse. After cell suspensions were obtained, cancer cells and immune cells infiltrated withing tumors were stained using specific antibodies against different immune cell subsets and further analyzed using flow cytometry. The combinations used were: Th1 cells=CD45+ CD4+ CCR4− CXCR3+, Th2 cells=CD45+ CD4+ CCR4+ CXCR3−, Myeloid cells=CD45+ CD11b+ Ly6C+ and NKs cells=CD45+ NK1.1+.

Series [4] deals with LA1-5S cells. Nature of the series: Cell viability (crystal violet), ABTL0812 with topotecan. In kind it is cell-based. As to conditions: ABTL0812 30 μM + topotecan 0.5, 1, 2 μM; 72 hours. On the procedure:
Methods: LA1-5S cells were incubated with increasing concentrations of topotecan (0.5 μM, 1 μM and 2 μM) and a fixed concentration of ABTL0812 (30 μM). Cells were treated for 72 hours in IMDM with 0.5% FBS. Cell viability was evaluated by crystal violet assay. Data is presented as mean±SEM of three independent experiments. Statistical analyses were performed according to the T-Test principle with GraphPad Prism® 5.0 software.

Series [5] concerns U87MG cells. Kind of series: Human glioblastoma orthotopic xenograft, ABTL0812 with temozolomide. The note with it: ABTL0812 oral 240 mg/kg 5 days/week; temozolomide oral 32 mg/Kg first 5 days. It counts as in vivo, nude mice. On the procedure:
Methods: Mice were intra-cerebrally injected with luciferase transfected U87MG cells. Animals were randomized 5 days after cell inoculation and treatments started. ABTL0812 was administered orally at 240 mg/kg 5 days/week; and temozolomide orally at 32 mg/Kg the first 5 days. Tumors were measured by quantification of bioluminescence intensity (BLI) of the region of interest.
For orientation: Xenograft models place foreign cells or tissue in a host animal.

Setting [6] is: macrophages polarized to M1 (LPS+IFNγ 6 hours), ABTL0812 100 μM.

In the case of `CCCCC/C=C\C/C=C\CCCCCCC(O)C(=O)O` (centres unmarked) [ABTL0812, COOH—CHOH—(CH2)6—(CH═CH—CH2)2—(CH2)3—CH3], the “disease-free survival, single agent” value with U87MG cells [1] (ABTL0812 oral 240 mg/kg 5 days/week) is listed as “significantly increased the disease-free survival”. In addition, the “disease-free survival, combination with radiotherapy” value in the series with U87MG cells [1] (ABTL0812 oral 240 mg/kg 5 days/week + radiotherapy single dose 4 Gy at day 10) is given as “significantly more efficacious than the single treatments”. The “temozolomide cytotoxicity on addition of ABTL0812” value with SK-N-BE(2) cells and in the series on LA1-5S cells [2] was “increased temozolomide cytotoxicity” in each case. For the same molecule, the “PDL1 expression, increase from basal levels” value with PDL1 (Capan-2 cells) came to 86%; in the series with PDL1 (MiaPaca2 cells) it was 34%. In addition, the tumor volume result with Ishikawa cells is recorded as “significantly reduced tumor volume”; in the series with MT5 cells (ABTL0812 oral 480 mg/kg/day, anti-PD1 i.p. 200 μg/dose every three days), “significantly decreasing tumor volume compared with vehicle treatment group”. Besides, the “expression of IL-1β” value in [3] (differentiated macrophages without polarizing, ABTL0812 alone) is listed as “significantly induces the expression of IL-1β”. Besides, the “IL-1β mRNA levels” value in series [3] (setting [6]) was “significantly potentiates”. In series [3] (setting [6]), the “TNFα mRNA levels” value is recorded as “significantly potentiates”. In addition, in [3] (macrophages polarized to M2 (IL-4 and IL-13, 24 hours), ABTL0812 100 μM), the “IL-10 mRNA levels” value is listed as “significantly suppresses”. For the same molecule, the “Th1/Th2 ratio in spleen” value in the series with MT5 cells (flow cytometry) is “increase in the Th1/Th2 ratio”. Besides, in the series with MT5 cells (flow cytometry, CD45+ CD11b+ Ly6C+), the “Myeloid cells within tumors” value is on record as “increase of Myeloid cells within tumors”. In addition, in the series with MT5 cells (flow cytometry, CD45+ NK1.1+), the “percentage of NK cells within tumor” value is “increase in the percentage of NK cells within tumor”. Moreover, the “topotecan cytotoxicity on addition of ABTL0812” value in the series with LA1-5S cells [4] is recorded as “significantly increased topotecan cytotoxicity”. In the series on U87MG cells [5], the disease-free survival result is “significantly increased the disease-free survival”.
